Assay results as given in US6617491B2, “Use of drosophila melanogaster as a model for screening psychostimulant plant materials” (Council of Scientific & Industrial Research, priority 2001, dated 2003).

Experiments:
[1] = tested on: Sh^5eag^1 mutant flies; experiment: Spontaneous locomotor activity in flies, pair-wise visual comparison of vials on a scale of '0', '+' or '−'; type: in vivo, Drosophila melanogaster; conditions: baseline NF flies; 73 comparisons; 5th day; 20 flies per vial
Method: To further understand the activity profile of the plant material, flies were treated with either NF or NF containing either ethanol alone (NF+ET) or ethanol and extract both (NF+ET+EX). The ethanol concentration used was 20% (v/v). Other details were as described earlier. On 5th day, spontaneous locomotor activity in flies was pair-wise compared either between NF and NF+ET or between NF+ET and NF+ET+EX. Two vials representing the two treatments were kept side by side in an inverted position. There were 20 flies in each vial. The flies' activity in a group was visually estimated on a scale of ‘0’, ‘+’ or ‘−’, as described below. To compare between NF and NF+ET, the sum total of activity seen in the vial containing NF flies was considered ‘0’. The activity in the NF+ET vial was then given a ‘0’, ‘+’ or ‘−’, depending on whether it is equal, more or less than the activity observed in NF vial respectively. The process was repeated 73 times spanning an entire day. In this test, ethanol treated flies received 23 ‘0’s, no ‘+’ and 50 ‘−’s. […] NF+
ET and NF+ET+EX flies were similarly compared, with the activity in the former serving as baseline, i.e., ‘0’. In this test, NF+ET+EX received no ‘0’, 73 ‘+’5 and no ‘−’. […] First, ethanol decreases spontaneous locomotor activity in flies. Second, Acorus extract increases spontaneous locomotor activity in flies treated with ethanol, a CNS depressant drug.
Having observed a stimulant activity of Acorus extract in flies under the influence of alcohol, the question whether the extract also stimulates normal flies, i.e., individuals not under the drug's influence, was asked. To answer this, spontaneous locomotor activity in NF and NF+EX flies were compared, as described above. NF flies' activity served as the baseline. In the test conducted the extract treated flies received 18 ‘0’5 […] and 2 ‘−’s.

[2] = tested on: Sh^5eag^1 mutant flies; experiment: Time of recovery from diethyl ether anesthesia in individual fly pairs; type: in vivo, Drosophila melanogaster; conditions: NF+PS; PS 1 mg/ml in fly food; 10 fly pairs
Method: Standard Drosophila manipulation methods were followed. Cultures were grown on a medium containing maize powder, sugar, yeast and Nipagin. Flies were maintained and further manipulated at room temperature. Experimental conditions were kept identical throughout. The double mutant Sh^5eag^1 was generated using standard methods of Drosophila genetics. Male flies of similar age were used in the experiment. In routine screening, flies were anesthetized in various groups and then allowed to recover in an identical manner. For further testing, individual fly pairs were used as described below. Following different treatments, flies were first anesthetized with diethyl ether and healthy looking individuals shifted to a number of empty vials in such a way that each vial received two flies, one from each treatment. Before shifting, flies from one of the two treatments were marked on their wings for the purpose of identification. Flies were allowed to recover fully. After an hour, each fly pair was subjected to the following test. […]
To understand the above activity, and others, if any, of the Acorus extracts in Drosophila in a quantitative manner, following experiments were carried out using acetone extract as the representative substance. […] First, time of recovery from ether anesthesia was measured in individual flies. […] Following this, recovery time was determined as described earlier. […]

[3] = tested on: Sh^5eag^1 mutant flies; conditions: from Sharma and Kumar, Ser. No. 09/789,525; cited from earlier work

Compound | spontaneous locomotor activity: number of '0's (times equally active) [1] | spontaneous locomotor activity: number of '+'s (times more active) [1] | spontaneous locomotor activity: number of '−'s (times less active) [1] | recovery time from ether anesthesia [2] | effect on recovery from ether anesthesia in flies [3]
CCO [ethanol] | 23 | no | 50 | – | –
CCC1(c2ccccc2)C(=O)NC(=O)NC1=O [phenobarbital sodium] | – | – | – | 11.3 ± 2.38 min | causes a delay in recovery
